# According to the NIST ThermoML archive (doi:10.1016/j.jct.2016.07.029):
# Numbers after ± are expanded uncertainties.
# Assay: excess molar enthalpy (molar enthalpy of mixing); xn = mol fraction of the nth substance listed
# Details: 100 kPa, Liquid, Calvet calorimetry
compound,measurement,setting,value
[Zn] [zinc] + [Ga],excess molar enthalpy,"722 K, x1 = 0.0966",0.125 ± 0.0406 kcal/mol
same,excess molar enthalpy,"722 K, x1 = 0.132",0.161 ± 0.0229 kcal/mol
same,excess molar enthalpy,"722 K, x1 = 0.1679",0.205 ± 0.0406 kcal/mol
same,excess molar enthalpy,"722 K, x1 = 0.237",0.272 ± 0.0406 kcal/mol
same,excess molar enthalpy,"722 K, x1 = 0.2478",0.255 ± 0.0229 kcal/mol
same,excess molar enthalpy,"722 K, x1 = 0.2796",0.304 ± 0.0406 kcal/mol
same,excess molar enthalpy,"722 K, x1 = 0.3239",0.337 ± 0.0406 kcal/mol
same,excess molar enthalpy,"722 K, x1 = 0.3424",0.323 ± 0.0232 kcal/mol
same,excess molar enthalpy,"722 K, x1 = 0.3664",0.357 ± 0.0406 kcal/mol
same,excess molar enthalpy,"722 K, x1 = 0.4104",0.377 ± 0.0406 kcal/mol
same,excess molar enthalpy,"722 K, x1 = 0.4155",0.361 ± 0.0232 kcal/mol
same,excess molar enthalpy,"722 K, x1 = 0.4432",0.385 ± 0.0406 kcal/mol
same,excess molar enthalpy,"722 K, x1 = 0.4746",0.378 ± 0.0232 kcal/mol
same,excess molar enthalpy,"722 K, x1 = 0.4747",0.393 ± 0.0406 kcal/mol
same,excess molar enthalpy,"722 K, x1 = 0.5057",0.402 ± 0.0406 kcal/mol
same,excess molar enthalpy,"722 K, x1 = 0.5202",0.377 ± 0.0232 kcal/mol
same,excess molar enthalpy,"722 K, x1 = 0.5368",0.404 ± 0.0406 kcal/mol
same,excess molar enthalpy,"722 K, x1 = 0.5565",0.378 ± 0.0232 kcal/mol
same,excess molar enthalpy,"722 K, x1 = 0.562",0.406 ± 0.0406 kcal/mol
same,excess molar enthalpy,"722 K, x1 = 0.5901",0.379 ± 0.0232 kcal/mol
same,excess molar enthalpy,"722 K, x1 = 0.6188",0.375 ± 0.0232 kcal/mol
same,excess molar enthalpy,"722 K, x1 = 0.6444",0.37 ± 0.0232 kcal/mol
same,excess molar enthalpy,"722 K, x1 = 0.6659",0.363 ± 0.0232 kcal/mol
same,excess molar enthalpy,"722 K, x1 = 0.6846",0.357 ± 0.0232 kcal/mol
same,excess molar enthalpy,"722 K, x1 = 0.761",0.326 ± 0.0232 kcal/mol
same,excess molar enthalpy,"722 K, x1 = 0.8068",0.305 ± 0.0227 kcal/mol
same,excess molar enthalpy,"722 K, x1 = 0.8495",0.256 ± 0.0225 kcal/mol
same,excess molar enthalpy,"722 K, x1 = 0.9004",0.182 ± 0.0225 kcal/mol
same,excess molar enthalpy,"722 K, x1 = 0.948",0.102 ± 0.0225 kcal/mol
same,excess molar enthalpy,"923 K, x1 = 0.07739",0.092 ± 0.0454 kcal/mol
same,excess molar enthalpy,"923 K, x1 = 0.1307",0.149 ± 0.0287 kcal/mol
same,excess molar enthalpy,"923 K, x1 = 0.1593",0.182 ± 0.0454 kcal/mol
same,excess molar enthalpy,"923 K, x1 = 0.2353",0.252 ± 0.0287 kcal/mol
same,excess molar enthalpy,"923 K, x1 = 0.2736",0.284 ± 0.0454 kcal/mol
same,excess molar enthalpy,"923 K, x1 = 0.3154",0.313 ± 0.0287 kcal/mol
same,excess molar enthalpy,"923 K, x1 = 0.3262",0.315 ± 0.0454 kcal/mol
same,excess molar enthalpy,"923 K, x1 = 0.3711",0.346 ± 0.0454 kcal/mol
same,excess molar enthalpy,"923 K, x1 = 0.3774",0.352 ± 0.0287 kcal/mol
same,excess molar enthalpy,"923 K, x1 = 0.4101",0.361 ± 0.0454 kcal/mol
same,excess molar enthalpy,"923 K, x1 = 0.4408",0.38 ± 0.0287 kcal/mol
same,excess molar enthalpy,"923 K, x1 = 0.4434",0.384 ± 0.0454 kcal/mol
same,excess molar enthalpy,"923 K, x1 = 0.4743",0.395 ± 0.0454 kcal/mol
same,excess molar enthalpy,"923 K, x1 = 0.4896",0.398 ± 0.0287 kcal/mol
same,excess molar enthalpy,"923 K, x1 = 0.4981",0.403 ± 0.0454 kcal/mol
